Where two headings read alike, the source gives them in different places.
Molecular target: T1, ER (Homo sapiens, UniProt P03372)
T1 construct: host or cells: T47D and MCF7 human breast cancer cells
T1 sequence (P03372 1-595): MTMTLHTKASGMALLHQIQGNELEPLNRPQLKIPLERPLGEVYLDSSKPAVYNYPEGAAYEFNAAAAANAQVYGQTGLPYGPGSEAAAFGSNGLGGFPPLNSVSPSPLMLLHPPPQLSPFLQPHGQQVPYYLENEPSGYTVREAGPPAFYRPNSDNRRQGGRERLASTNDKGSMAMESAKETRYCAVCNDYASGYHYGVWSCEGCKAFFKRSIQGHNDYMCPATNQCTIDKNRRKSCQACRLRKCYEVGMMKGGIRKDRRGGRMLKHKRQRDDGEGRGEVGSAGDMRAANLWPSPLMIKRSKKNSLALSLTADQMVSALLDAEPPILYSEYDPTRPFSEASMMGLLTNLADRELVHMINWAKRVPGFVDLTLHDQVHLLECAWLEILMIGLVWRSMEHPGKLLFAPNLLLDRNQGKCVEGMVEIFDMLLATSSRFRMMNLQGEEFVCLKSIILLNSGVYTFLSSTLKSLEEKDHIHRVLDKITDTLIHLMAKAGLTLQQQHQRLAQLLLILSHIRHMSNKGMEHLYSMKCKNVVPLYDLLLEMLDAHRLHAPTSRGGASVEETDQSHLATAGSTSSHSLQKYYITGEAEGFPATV
Test: ER degradation activity, in-cell western blot analysis in T47D cells
Format: cell-based
Summary of the method: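 Read-out is near-infrared fluorescence from an in-cell western, expressed as ER percentage relative to untreated and DMSO controls taken as 100%. T47D breast cancer cells received compound for 16 h in 0.5% DMSO.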

[1] = 16 hours, Table A does not say which cell line (T47D or MCF7), read-out: Potency (DC50)
[2] = compounds 16 hours, Table A does not say whether T47D or MCF7, read-out: Potency (DC50)

| Structure (SMILES) | DC50 [1] [nM] | DC50 [2] [nM] |
| --- | --- | --- |
| O=C1CCC(N2Cc3cc4c(cc3C2=O)CN(C2CCN(CC3CCN(c5ccc([C@@H]6c7ccc(O)cc7CC[C@@H]6c6ccccc6)cc5)CC3)CC2)C4)C(=O)N1 (mixture of isomers) [E 3, Rac-3-(6-(1-((1-(4-((1R,2S)-6-hydroxy-2-phenyl-1,2,3,4-tetrahydronaphthalen-1-yl)phenyl)piperidin-4-yl)methyl)piperidin-4-yl)-1-oxo-3,5,6,7-tetrahydropyrrolo[3,4-f]isoindol-2(1H)-yl)piperidine-2,6-dione] | < 10 |  |
| O=C1CCC(N2C(=O)c3cc4c(cc3C2=O)CN(CC2CN(CC3CCN(c5ccc([C@@H]6c7ccc(O)cc7CC[C@@H]6c6ccccc6)cc5)CC3)C2)C4)C(=O)N1 (stereo partly drawn) [E 218, 2-(2,6-dioxopiperidin-3-yl)-6-((1-((1-(4-((1R,2S)-6-hydroxy-2-phenyl-1,2,3,4-tetrahydronaphthalen-1-yl)phenyl)piperidin-4-yl)methyl)azetidin-3-yl)methyl)-6,7-dihydropyrrolo[3,4-f]isoindole-1,3(2H,5H)-dione] | > 100 |  |
| COc1c2c(cc3c1C(=O)N(C1CCC(=O)NC1=O)C3=O)CN(CC(=O)N1CCC3(CC1)CCN(c1ccc([C@@H]4c5ccc(O)cc5CC[C@@H]4c4ccccc4)cc1)CC3)C2 (stereo partly drawn) [E 420, 2-(2,6-dioxopiperidin-3-yl)-6-(2-(9-(4-((1R,2S)-6-hydroxy-2-phenyl-1,2,3,4-tetrahydronaphthalen-1-yl)phenyl)-3,9-diazaspiro[5.5]undecan-3-yl)-2-oxoethyl)-4-methoxy-6,7-dihydropyrrolo[3,4-f]isoindole-1,3(2H,5H)-dione] |  | 10 to 100 |
| O=C1CCC(N2C(=O)c3cc4c(cc3C2=O)CN([C@H]2CC[C@H](NC3CN(c5ccc([C@@H]6c7ccc(O)cc7CC[C@@H]6c6ccccc6)cc5)C3)CC2)C4)C(=O)N1 (stereo partly drawn) [E 341, 2-(2,6-dioxopiperidin-3-yl)-6-((1R,4r)-4-((1-(4-((1R,2S)-6-hydroxy-2-phenyl-1,2,3,4-tetrahydronaphthalen-1-yl)phenyl)azetidin-3-yl)amino)cyclohexyl)-6,7-dihydropyrrolo[3,4-f]isoindole-1,3(2H,5H)-dione] | > 100 |  |
| O=C1CCC(N2C(=O)c3cc4c(cc3C2=O)CN(C2CCN(C(=O)[C@H]3C[C@@H](Oc5ccc([C@@H]6c7ccc(O)cc7CC[C@@H]6c6ccccc6)cc5)C3)CC2)C4)C(=O)N1 (mixture of isomers) [E 490, 2-(2,6-dioxopiperidin-3-yl)-6-(1-((1SR,3SR)-3-(4-((1R,2S)-6-hydroxy-2-phenyl-1,2,3,4-tetrahydronaphthalen-1-yl)phenoxy)cyclobutane-1-carbonyl)piperidin-4-yl)-6,7-dihydropyrrolo[3,4-f]isoindole-1,3(2H,5H)-dione] |  | 10 to 100 |
| O=C1CCC(N2C(=O)c3cc4c(cc3C2=O)CN(C(=O)[C@H]2CC[C@H](N3CC(Oc5ccc([C@H]6c7ccc(O)cc7CC[C@H]6c6ccccc6)cc5)C3)CC2)C4)C(=O)N1 (stereo partly drawn) [E 388, 2-(2,6-dioxopiperidin-3-yl)-6-((1S,4r)-4-(3-(4-((1S,2R)-6-hydroxy-2-phenyl-1,2,3,4-tetrahydronaphthalen-1-yl)phenoxy)azetidin-1-yl)cyclohexane-1-carbonyl)-6,7-dihydropyrrolo[3,4-f]isoindole-1,3(2H,5H)-dione] | 10 to 100 |  |
| O=C1CCC(N2C(=O)c3cc4c(cc3C2=O)CN(C(=O)CN2CCC3(CC2)CCN(c2ccc([C@@H]5c6ccc(O)cc6CC[C@@H]5c5ccccc5)cc2)CC3)CC4)C(=O)N1 (mixture of isomers) [E 161, rac-2-(2,6-dioxopiperidin-3-yl)-6-(2-(9-(4-((1R,2S)-6-hydroxy-2-phenyl-1,2,3,4-tetrahydronaphthalen-1-yl)phenyl)-3,9-diazaspiro[5.5]undecan-3-yl)acetyl)-5,6,7,8-tetrahydro-1H-pyrrolo[3,4-g]isoquinoline-1,3(2H)-dione] | > 100 |  |
| O=C1CCC(N2Cc3cc4c(cc3C2=O)CN(C(=O)[C@H]2CC[C@@H](N3CC(Nc5ccc([C@@H]6c7ccc(O)cc7CC[C@@H]6c6ccccc6)cc5)C3)CC2)C4)C(=O)N1 (single isomer, unassigned) [E 361] | > 100 |  |
| O=C1CCC(N2C(=O)c3cc4c(cc3C2=O)CN(C2CCN(CC3CCN(c5ccc([C@@H]6c7ccc(O)cc7CC[C@@H]6c6ccc(F)cc6)cc5)CC3)CC2)C4)C(=O)N1 (stereo partly drawn) [E 273, 2-(2,6-dioxopiperidin-3-yl)-6-(1-((1-(4-((1R,2S)-2-(4-fluorophenyl)-6-hydroxy-1,2,3,4-tetrahydronaphthalen-1-yl)phenyl)piperidin-4-yl)methyl)piperidin-4-yl)-6,7-dihydropyrrolo[3,4-f]isoindole-1,3(2H,5H)-dione] | 10 to 100 |  |
| C[C@@H]1Cc2c([nH]c3ccccc23)[C@@H](c2c(F)cc(N3CCC(N4CCC(CC(=O)N5Cc6cc7c(cc6C5)C(=O)N(C5CCC(=O)NC5=O)C7)CC4)CC3)cc2F)N1CC(F)F (stereo partly drawn) [E 94, 3-(6-(2-(1′-(4-((1R,3R)-2-(2,2-difluoroethyl)-3-methyl-2,3,4,9-tetrahydro-1H-pyrido[3,4-b]indol-1-yl)-3,5-difluorophenyl)-[1,4′-bipiperidin]-4-yl)acetyl)-1-oxo-3,5,6,7-tetrahydropyrrolo[3,4-f]isoindol-2(1H)-yl)piperidine-2,6-dione] | < 10 |  |
| C[C@@H]1Cc2cc(O)ccc2[C@@H](c2c(F)cc(N3CCC(CN4CC(N5Cc6cc7c(cc6C5)C(=O)N(C5CCC(=O)NC5=O)C7=O)C4)CC3)cc2F)N1CC(F)F (stereo partly drawn) [E 47, 6-(1-((1-(4-((1S,3R)-2-(2,2-difluoroethyl)-6-hydroxy-3-methyl-1,2,3,4-tetrahydroisoquinolin-1-yl)-3,5-difluorophenyl)piperidin-4-yl)methyl)azetidin-3-yl)-2-(2,6-dioxopiperidin-3-yl)-6,7-dihydropyrrolo[3,4-f]isoindole-1,3(2H,5H)-dione] | > 100 |  |
| O=C1CCC(N2Cc3cc4c(cc3C2=O)CN(C(=O)CN2CC3(C2)CN(c2ccc(C5=C(c6ccc(F)cc6)CCCc6cc(O)ccc65)cc2)C3)C4)C(=O)N1 (centres unmarked) [E 48] | 10 to 100 |  |
| C[C@@H]1Cc2cc(O)ccc2[C@@H](c2c(F)cc(N3CC4(CCN(C(=O)CN5Cc6cc7c(cc6C5)C(=O)N(C5CCC(=O)NC5=O)C7)C4)C3)cc2F)N1CC(F)F (stereo partly drawn) [E 36, 3-(6-(2-(2-(4-((1S,3R)-2-(2,2-difluoroethyl)-6-hydroxy-3-methyl-1,2,3,4-tetrahydroisoquinolin-1-yl)-3,5-difluorophenyl)-2,6-diazaspiro[3.4]octan-6-yl)-2-oxoethyl)-1-oxo-3,5,6,7-tetrahydropyrrolo[3,4-f]isoindol-2(1H)-yl)piperidine-2,6-dione] | < 10 |  |
| C[C@@H]1Cc2cc(O)ccc2[C@@H](c2c(F)cc(N3CC4(CCN(CC(=O)N5Cc6cc7c(cc6C5)C(=O)N(C5CCC(=O)NC5=O)C7=O)CC4)C3)cc2F)N1CC(C)(F)F (stereo partly drawn) [E 25, 6-(2-(2-(4-((1S,3R)-2-(2,2-difluoropropyl)-6-hydroxy-3-methyl-1,2,3,4-tetrahydroisoquinolin-1-yl)-3,5-difluorophenyl)-2,7-diazaspiro[3.5]nonan-7-yl)acetyl)-2-(2,6-dioxopiperidin-3-yl)-6,7-dihydropyrrolo[3,4-f]isoindole-1,3(2H,5H)-dione] | > 100 |  |
| C[C@@H]1Cc2c(ccc3[nH]ncc23)[C@@H](c2c(F)cc(C3=CCC(C(=O)N4CCC(N5Cc6cc7c(cc6C5)C(=O)N(C5CCC(=O)NC5=O)C7=O)CC4)CC3)cc2F)N1CC(F)F (mixture of isomers) [E 468, 6-(1-(4′-((6S,8R)-7-(2,2-difluoroethyl)-8-methyl-6,7,8,9-tetrahydro-3H-pyrazolo[4,3-f]isoquinolin-6-yl)-3′,5′-difluoro-2,3,4,5-tetrahydro-[1,1′-biphenyl]-4-carbonyl)piperidin-4-yl)-2-(2,6-dioxopiperidin-3-yl)-6,7-dihydropyrrolo[3,4-f]isoindole-1,3(2H,5H)-dione] |  | 10 to 100 |
| C[C@@H]1Cc2c([nH]c3ccccc23)[C@@H](c2c(F)cc(N3CCC(N4CC(CC(=O)N5Cc6cc7c(cc6C5)C(=O)N(C5CCC(=O)NC5=O)C7=O)C4)CC3)cc2F)N1CC(F)F (stereo partly drawn) [E 55, 6-(2-(1-(1-(4-((1R,3R)-2-(2,2-difluoroethyl)-3-methyl-2,3,4,9-tetrahydro-1H-pyrido[3,4-b]indol-1-yl)-3,5-difluorophenyl)piperidin-4-yl)azetidin-3-yl)acetyl)-2-(2,6-dioxopiperidin-3-yl)-6,7-dihydropyrrolo[3,4-f]isoindole-1,3(2H,5H)-dione] | > 100 |  |
| C[C@@H]1Cc2c([nH]c3ccccc23)[C@@H](c2c(F)cc(C3=CCC(C(=O)N4CCC(N5Cc6cc7c(cc6C5)C(=O)N(C5CCC(=O)NC5=O)C7=O)CC4)CC3)cc2F)N1CC1(F)CC1 (stereo partly drawn) [E 485, 6-(1-(3′,5′-difluoro-4′-((1R,3R)-2-((1-fluorocyclopropyl)methyl)-3-methyl-2,3,4,9-tetrahydro-1H-pyrido[3,4-b]indol-1-yl)-2,3,4,5-tetrahydro-[1,1′-biphenyl]-4-carbonyl)piperidin-4-yl)-2-(2,6-dioxopiperidin-3-yl)-6,7-dihydropyrrolo[3,4-f]isoindole-1,3(2H,5H)-dione] |  | > 100 |
